pIC50: −log10 of the molar value.
biological target: MAPK14 (human) (UniProt Q16539); assay: Inhibition of MAPK14 Kinase Activity
Sequence (Q16539 whole entry, looked up): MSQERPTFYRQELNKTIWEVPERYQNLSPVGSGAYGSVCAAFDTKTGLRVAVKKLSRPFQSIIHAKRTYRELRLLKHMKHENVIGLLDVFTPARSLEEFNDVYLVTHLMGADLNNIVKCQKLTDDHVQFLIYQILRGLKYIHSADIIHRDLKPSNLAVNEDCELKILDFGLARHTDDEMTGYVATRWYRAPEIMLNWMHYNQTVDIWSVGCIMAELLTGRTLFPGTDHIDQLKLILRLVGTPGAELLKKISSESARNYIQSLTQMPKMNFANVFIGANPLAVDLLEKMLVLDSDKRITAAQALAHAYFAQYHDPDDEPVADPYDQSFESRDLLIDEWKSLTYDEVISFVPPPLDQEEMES

Row | Compound | pIC50
1 | C[C@H](O)Cn1c(=O)c(Oc2ccc(F)cc2F)cc2cnc(NC3CCOCC3)nc21 | 7.00 to 9.00
2 | C[C@H](O)Cn1c(=O)c(Oc2ccc(F)cc2F)cc2cnc(NC3CCCCC3)nc21 | 7.00 to 9.00
3 | C[C@H](O)Cn1c(=O)c(Oc2ccc(F)cc2F)cc2cnc(N[C@@H](CO)CCO)nc21 | 7.00 to 9.00
4 | C[C@@H](O)Cn1c(=O)c(Oc2ccc(F)cc2F)cc2cnc(NC3CCC3)nc21 | 7.00 to 9.00
5 | C[C@H](O)Cn1c(=O)c(Oc2ccc(F)cc2F)cc2cnc(NC3CCCC3)nc21 | 7.00 to 9.00
6 | C[C@H](O)Cn1c(=O)c(Oc2ccc(F)cc2F)cc2cnc(NC(C)(C)CO)nc21 | 7.00 to 9.00
7 | CC(=O)Cn1c(=O)c(Oc2ccc(F)cc2F)cc2cnc(N[C@@H](C)CO)nc21 | 7.00 to 9.00
8 | COCCC(CCOC)Nc1ncc2cc(Oc3ccc(F)cc3F)c(=O)n(C[C@H](C)O)c2n1 | 7.00 to 9.00
9 | C[C@@H](O)Cn1c(=O)c(Oc2ccc(F)cc2F)cc2cnc(NC3CC3)nc21 | 7.00 to 9.00
10 | C[C@H](O)Cn1c(=O)c(Oc2ccc(F)cc2F)cc2cnc(NC3CCN(S(C)(=O)=O)CC3)nc21 | 7.00 to 9.00
11 | O=c1c(Oc2ccc(F)cc2F)cc2cnc(NC3CCOCC3)nc2n1CCO | 7.00 to 9.00
12 | C[C@H](O)Cn1c(=O)c(Oc2ccc(F)cc2F)cc2cnc(NC(CO)CO)nc21 | 7.00 to 9.00
13 | C[C@H](O)Cn1c(=O)c(Oc2ccc(F)cc2F)cc2cnc(NC3CC3)nc21 | 7.00 to 9.00
14 | C[C@H](O)Cn1c(=O)c(Oc2ccc(F)cc2F)cc2cnc(NCC(C)(C)C)nc21 | 7.00 to 9.00
15 | C[C@@H](O)Cn1c(=O)c(Oc2ccc(F)cc2F)cc2cnc(NC(C)(C)CO)nc21 | 7.00 to 9.00
16 | C[C@@H](O)Cn1c(=O)c(Oc2ccc(F)cc2F)cc2cnc(NC3CCOCC3)nc21 | 7.00 to 9.00
17 | COC[C@H](C)Nc1ncc2cc(Oc3ccc(F)cc3F)c(=O)n(C(CCO)CCO)c2n1 | 7.00 to 9.00
18 | C[C@@H](O)Cn1c(=O)c(Oc2ccc(F)cc2F)cc2cnc(NCC3CC3)nc21 | 7.00 to 9.00
19 | C[C@H](O)Cn1c(=O)c(Oc2ccc(F)cc2F)cc2cnc(NC(CCO)CCO)nc21 | 7.00 to 9.00
20 | CC(O)Cn1c(=O)c(Oc2ccc(F)cc2F)cc2cnc(NC3CCOCC3)nc21 (stereo unspecified) | 7.00 to 9.00
21 | C[C@H](O)Cn1c(=O)c(Oc2ccc(F)cc2F)cc2cnc(N[C@H](CO)CCO)nc21 | 7.00 to 9.00
22 | CC(=O)Cn1c(=O)c(Oc2ccc(F)cc2F)cc2cnc(N[C@H](C)CO)nc21 | 7.00 to 9.00

Further lines, results first:

Row | pIC50 | Compound
23 | 7.00 to 9.00 | CNc1ncc2cc(Oc3ccc(F)cc3F)c(=O)n(C[C@@H](C)O)c2n1
24 | 7.00 to 9.00 | C[C@H](O)Cn1c(=O)c(Oc2ccc(F)cc2F)cc2cnc(NC[C@@H](C)O)nc21
25 | 7.00 to 9.00 | CC[C@H](C)Nc1ncc2cc(Oc3ccc(F)cc3F)c(=O)n(C[C@@H](C)O)c2n1
26 | 7.00 to 9.00 | CC[C@@H](C)Nc1ncc2cc(Oc3ccc(F)cc3F)c(=O)n(C[C@H](C)O)c2n1
27 | 7.00 to 9.00 | COC[C@H](C)Nc1ncc2cc(Oc3ccc(F)cc3F)c(=O)n(C[C@H](C)O)c2n1
28 | 7.00 to 9.00 | CC[C@H](CO)Nc1ncc2cc(Oc3ccc(F)cc3F)c(=O)n(C[C@@H](C)O)c2n1
29 | 7.00 to 9.00 | CC[C@@H](C)Nc1ncc2cc(Oc3ccc(F)cc3F)c(=O)n(C[C@@H](C)O)c2n1
30 | 7.00 to 9.00 | C[C@H](O)CNc1ncc2cc(Oc3ccc(F)cc3F)c(=O)n(C[C@@H](C)O)c2n1
31 | 7.00 to 9.00 | CC[C@@H](CO)Nc1ncc2cc(Oc3ccc(F)cc3F)c(=O)n(C[C@H](C)O)c2n1
32 | 7.00 to 9.00 | C[C@H](O)Cn1c(=O)c(Oc2ccc(F)cc2F)cc2cnc(N[C@H](C)CO)nc21
33 | 7.00 to 9.00 | C[C@@H](O)Cn1c(=O)c(Oc2ccc(F)cc2F)cc2cnc(N[C@@H](C)CO)nc21
34 | 7.00 to 9.00 | CC[C@H](CO)Nc1ncc2cc(Oc3ccc(F)cc3F)c(=O)n(C[C@H](C)O)c2n1
35 | 7.00 to 9.00 | C[C@H](O)Cn1c(=O)c(Oc2ccc(F)cc2F)cc2cnc(N[C@H](CO)[C@@H](C)O)nc21
36 | 7.00 to 9.00 | CCNc1ncc2cc(Oc3ccc(F)cc3F)c(=O)n(C[C@@H](C)O)c2n1
37 | 7.00 to 9.00 | C[C@H](CO)Nc1ncc2cc(Oc3ccc(F)cc3F)c(=O)n(C[C@@H](C)O)c2n1
38 | 7.00 to 9.00 | C[C@@H](O)CNc1ncc2cc(Oc3ccc(F)cc3F)c(=O)n(C[C@@H](C)O)c2n1
39 | 7.00 to 9.00 | C[C@@H](O)Cn1c(=O)c(Oc2ccc(F)cc2F)cc2cnc(NCC(C)(C)C)nc21
40 | 7.00 to 9.00 | CC[C@H](C)Nc1ncc2cc(Oc3ccc(F)cc3F)c(=O)n(C[C@H](C)O)c2n1
41 | 7.00 to 9.00 | C[C@H](O)CNc1ncc2cc(Oc3ccc(F)cc3F)c(=O)n(C[C@H](C)O)c2n1
42 | 7.00 to 9.00 | CC(C)CNc1ncc2cc(Oc3ccc(F)cc3F)c(=O)n(C[C@@H](C)O)c2n1
43 | 7.00 to 9.00 | CC(C)Nc1ncc2cc(Oc3ccc(F)cc3F)c(=O)n(C[C@@H](C)O)c2n1
44 | 7.00 to 9.00 | C[C@H](O)Cn1c(=O)c(Oc2ccc(F)cc2F)cc2cnc(N[C@@H](C)CO)nc21
45 | 7.00 to 9.00 | C[C@H](Nc1ncc2cc(Oc3ccc(F)cc3F)c(=O)n(C[C@@H](C)O)c2n1)C(C)(C)O
46 | 7.00 to 9.00 | CC(C)Nc1ncc2cc(Oc3ccc(F)cc3F)c(=O)n(C[C@H](C)O)c2n1
